Test results reported in ChEMBL document CHEMBL4402573, “Discovery and Optimization of α-Mangostin Derivatives as Novel PDE4 Inhibitors for the Treatment of Vascular Dementia” (J Med Chem, 2020).
Activity calls are given as the source filed them. No cut-off for these calls is given here.

Molecular target: 3',5'-cyclic-AMP phosphodiesterase 4D (Homo sapiens, UniProt Q08499)
Assay: Inhibition of human PDE4D2 (86 to 413 residues) expressed in Escherichia coli BL21 codon-plus cells using [3H]cAMP as substrate incubated for 15 mins by liquid scintillation counting method
Conditions: not given

Sequence of 3',5'-cyclic-AMP phosphodiesterase 4D (Q08499 whole entry, the tested form may be a part): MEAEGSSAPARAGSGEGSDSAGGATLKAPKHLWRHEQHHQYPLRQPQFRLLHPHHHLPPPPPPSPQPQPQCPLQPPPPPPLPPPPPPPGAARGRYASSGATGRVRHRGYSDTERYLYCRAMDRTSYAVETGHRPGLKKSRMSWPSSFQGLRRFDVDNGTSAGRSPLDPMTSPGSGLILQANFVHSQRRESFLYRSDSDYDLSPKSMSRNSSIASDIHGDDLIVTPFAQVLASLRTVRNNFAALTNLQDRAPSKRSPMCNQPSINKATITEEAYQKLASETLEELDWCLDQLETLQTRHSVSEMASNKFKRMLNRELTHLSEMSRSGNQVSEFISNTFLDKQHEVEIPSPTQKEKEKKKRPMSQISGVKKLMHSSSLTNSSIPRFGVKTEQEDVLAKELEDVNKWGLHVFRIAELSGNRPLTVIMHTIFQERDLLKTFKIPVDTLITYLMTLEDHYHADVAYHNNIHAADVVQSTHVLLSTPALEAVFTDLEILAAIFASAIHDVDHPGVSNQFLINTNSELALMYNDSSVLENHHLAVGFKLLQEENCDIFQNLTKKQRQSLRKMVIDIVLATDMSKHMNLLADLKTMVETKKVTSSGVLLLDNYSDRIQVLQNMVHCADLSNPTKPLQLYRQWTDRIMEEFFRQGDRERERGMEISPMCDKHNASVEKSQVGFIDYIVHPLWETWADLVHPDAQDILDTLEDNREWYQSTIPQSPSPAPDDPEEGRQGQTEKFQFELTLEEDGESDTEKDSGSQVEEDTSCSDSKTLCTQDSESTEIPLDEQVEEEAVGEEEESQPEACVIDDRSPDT

Compound | IC50
COc1c(OCCCCCCBr)cc2oc3cc4c(c(O)c3c(=O)c2c1CC=C(C)C)C=CC(C)(C)O4 | > 10000 nM
CCOC(=O)CCCOc1cc2oc3cc4c(c(O)c3c(=O)c2c(CC=C(C)C)c1OC)C=CC(C)(C)O4 | > 10000 nM
COc1c(OCCCCCCCN2CCCC2)cc2oc3cc4c(c(O)c3c(=O)c2c1CC=C(C)C)C=CC(C)(C)O4 | 148 nM
COc1c(OCCCCBr)cc2oc3cc4c(c(O)c3c(=O)c2c1CC=C(C)C)C=CC(C)(C)O4 | > 10000 nM
COc1c(OCCCN2CCCC2)cc2oc3cc4c(c(O)c3c(=O)c2c1CC=C(C)C)C=CC(C)(C)O4 | > 1000 nM
COc1c(O)cc2oc3cc(O)c(CC=C(C)C)c(O)c3c(=O)c2c1CC=C(C)C [MANGOSTIN] | 1310 nM
CCOC(=O)CCCCCCOc1cc2oc3cc4c(c(O)c3c(=O)c2c(CC=C(C)C)c1OC)C=CC(C)(C)O4 | > 10000 nM
COc1c(OCCCBr)cc2oc3cc4c(c(O)c3c(=O)c2c1CC=C(C)C)C=CC(C)(C)O4 | > 10000 nM
COc1c(OCCCCC(=O)O)cc2oc3cc4c(c(O)c3c(=O)c2c1CC=C(C)C)C=CC(C)(C)O4 | 99 nM
CCOC(=O)COc1cc2oc3cc4c(c(O)c3c(=O)c2c(CC=C(C)C)c1OC)C=CC(C)(C)O4 | > 10000 nM
CCOC(=O)CCCCCOc1cc2oc3cc4c(c(O)c3c(=O)c2c(CC=C(C)C)c1OC)C=CC(C)(C)O4 | > 10000 nM
CCOC(=O)CCCCCCCOc1cc2oc3cc4c(c(O)c3c(=O)c2c(CC=C(C)C)c1OC)C=CC(C)(C)O4 | > 10000 nM
COc1c(OCCCC(=O)O)cc2oc3cc4c(c(O)c3c(=O)c2c1CC=C(C)C)C=CC(C)(C)O4 | 44 nM
COc1c(OCCCCCCN2CCCC2)cc2oc3cc4c(c(O)c3c(=O)c2c1CC=C(C)C)C=CC(C)(C)O4 | 99 nM
CCOC(=O)CCCCOc1cc2oc3cc4c(c(O)c3c(=O)c2c(CC=C(C)C)c1OC)C=CC(C)(C)O4 | > 10000 nM
COc1c(OCC(=O)O)cc2oc3cc4c(c(O)c3c(=O)c2c1CC=C(C)C)C=CC(C)(C)O4 | 480 nM
COc1c(OCCCCCCCBr)cc2oc3cc4c(c(O)c3c(=O)c2c1CC=C(C)C)C=CC(C)(C)O4 | > 10000 nM
COc1c(OCCCCN2CCCC2)cc2oc3cc4c(c(O)c3c(=O)c2c1CC=C(C)C)C=CC(C)(C)O4 | 622 nM
COc1c(OCCCCCCCC(=O)O)cc2oc3cc4c(c(O)c3c(=O)c2c1CC=C(C)C)C=CC(C)(C)O4 | 16 nM
COc1c(OCCCCCN2CCCC2)cc2oc3cc4c(c(O)c3c(=O)c2c1CC=C(C)C)C=CC(C)(C)O4 | 200 nM
COc1c(OCCCCCCCCC(=O)O)cc2oc3cc4c(c(O)c3c(=O)c2c1CC=C(C)C)C=CC(C)(C)O4 | 58 nM
COc1c(OCCCCCC(=O)O)cc2oc3cc4c(c(O)c3c(=O)c2c1CC=C(C)C)C=CC(C)(C)O4 | 76 nM
COc1c(OCCCCCBr)cc2oc3cc4c(c(O)c3c(=O)c2c1CC=C(C)C)C=CC(C)(C)O4 | > 10000 nM
CCOC(=O)CCCCCCCCOc1cc2oc3cc4c(c(O)c3c(=O)c2c(CC=C(C)C)c1OC)C=CC(C)(C)O4 | > 10000 nM
COc1c(O)cc2oc3cc4c(c(O)c3c(=O)c2c1CC=C(C)C)C=CC(C)(C)O4 [MANGOSTANIN] | 420 nM

Molecular target: Phosphodiesterase isozyme 4 (Homo sapiens, UniProt Q86V67)
Sequence (Q86V67 whole entry): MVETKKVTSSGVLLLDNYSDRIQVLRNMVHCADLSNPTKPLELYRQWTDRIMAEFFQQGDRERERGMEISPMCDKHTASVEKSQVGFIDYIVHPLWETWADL
Assay: Inhibition of PDE4 (unknown origin)
Conditions: not given

Compound | IC50
C=C(C)[C@@H]1CC[C@]2(C(=O)O)CC[C@]3(C)[C@H](CC[C@@H]4[C@@]5(C)CC[C@H](O)C(C)(C)[C@@H]5CC[C@]43C)[C@@H]12 [BETULINIC ACID] | 125000 nM

Tested on: not listed separately
Assay: Toxicity in Beagle dog assessed as animals exhibiting emesis at 1 mg/kg, po observed for 180 mins
Assay type: organism-based, Canis lupus familiaris
Conditions: in vivo, 3 h

Compound | Activity
COc1ccc(C2CNC(=O)C2)cc1OC1CCCC1 (stereo not given) [ROLIPRAM] | 100%

Tested on: Mus musculus
Assay: Anti-VaD activity against UCCAO-induced spatial memory deficient C57BL/6J mouse model assessed as improvement in spatial learning and memory by measuring reduction in escape latency at 0.7 mg/kg, po administered for 21 days by Morris water maze test
Assay type: functional, organism-based
Conditions: not given

Compound | Activity
COc1cc2c(cc1OC)C(=O)C(CC1CCN(Cc3ccccc3)CC1)C2 (stereo not given) | Active

Tested on: Mus musculus
Assay: Anti-VaD activity against UCCAO-induced spatial memory deficient C57BL/6J mouse model assessed as improvement in spatial learning and memory by measuring increase in frequency of platform area crossings at 0.7 mg/kg, po administered for 21 days by Morris water maze test
Assay type: functional, organism-based
Conditions: not given

Compound | Activity
COc1cc2c(cc1OC)C(=O)C(CC1CCN(Cc3ccccc3)CC1)C2 (stereo not given) | Active

Tested on: Mus musculus
Assay: Anti-VaD activity against UCCAO-induced spatial memory deficient C57BL/6J mouse model assessed as improvement in spatial learning and memory by measuring increase in residence time on the platform at 0.7 mg/kg, po administered for 21 days by Morris water maze test
Assay type: functional, organism-based
Conditions: not given

Compound | Activity
COc1cc2c(cc1OC)C(=O)C(CC1CCN(Cc3ccccc3)CC1)C2 (stereo not given) | Active
